# Reference: ChEMBL document CHEMBL3603792, “The discovery of oxazolones-grafted spirooxindoles via three-component diversity oriented synthesis and their preliminary biological evaluation” (Bioorg Med Chem Lett, 2015)
# Active and inactive are the calls of the source. The calls are words filed in the database; no cut-off is given here.
# Legend:
# [1] = system: PANC-1; assay: Cytotoxicity against human PANC1 cells assessed as inhibition of cell growth at 10 ug/ml incubated for 48 hrs by MTT assay; assay type: functional, cell-based
# [2] = system: MCF7; assay: Cytotoxicity against human MCF7 cells assessed as inhibition of cell growth at 10 ug/ml incubated for 48 hrs by MTT assay; assay type: functional, cell-based
# [3] = system: HepG2; assay: Cytotoxicity against human HepG2 cells assessed as inhibition of cell growth at 10 ug/ml incubated for 48 hrs by MTT assay; assay type: functional, cell-based
# [4] = system: HeLa; assay: Cytotoxicity against human HeLa cells assessed as inhibition of cell growth at 10 ug/ml incubated for 48 hrs by MTT assay; assay type: functional, cell-based
# [5] = system: A-375; assay: Cytotoxicity against human A375 cells assessed as inhibition of cell growth at 10 ug/ml incubated for 48 hrs by MTT assay; assay type: functional, cell-based
# [6] = system: A549; assay: Cytotoxicity against human A549 cells assessed as inhibition of cell growth at 10 ug/ml incubated for 48 hrs by MTT assay; assay type: functional, cell-based
# [7] = system: SK-OV-3; assay: Cytotoxicity against human SKOV3 cells assessed as inhibition of cell growth at 10 ug/ml incubated for 48 hrs by MTT assay; assay type: functional, cell-based
# [8] = system: K562; assay: Cytotoxicity against human K562 cells assessed as inhibition of cell growth at 10 ug/ml incubated for 48 hrs by MTT assay; assay type: functional, cell-based
# [9] = system: MCF7; assay: cells; assay type: functional, cell-based; details: Homo sapiens, MCF7, 48 h
# Description: Cytotoxicity against human MCF7 cells assessed as inhibition of cell growth incubated for 48 hrs by MTT assay
# [10] = system: MDA-MB-231; assay: cells; assay type: functional, cell-based; details: Homo sapiens, MDA-MB-231, 48 h
# Description: Cytotoxicity against human MDA-MB-231 cells assessed as inhibition of cell growth incubated for 48 hrs by MTT assay
# [11] = system: MDA-MB-468; assay: cells; assay type: functional, cell-based; details: Homo sapiens, MDA-MB-468, 48 h
# Description: Cytotoxicity against human MDA-MB-468 cells assessed as inhibition of cell growth incubated for 48 hrs by MTT assay
# [12] = system: HepG2; assay: cells; assay type: functional, cell-based; details: Homo sapiens, HepG2, 48 h
# Description: Cytotoxicity against human HepG2 cells assessed as inhibition of cell growth incubated for 48 hrs by MTT assay
# [13] = cells; assay type: functional, cell-based; details: Homo sapiens, HCCC9810, 48 h
# Description: Cytotoxicity against human HCCC9810 cells assessed as inhibition of cell growth incubated for 48 hrs by MTT assay
# [14] = cells; assay type: functional, cell-based; details: Homo sapiens, Huh-7, 48 h
# Description: Cytotoxicity against human HuH7 cells assessed as inhibition of cell growth incubated for 48 hrs by MTT assay
# [15] = system: MCF7; assay: Induction of apoptosis in human MCF7 cells at 50 uM incubated for 24 hrs by Hoechst 33342 staining; assay type: functional, cell-based
# [16] = system: HeLa; assay: Induction of apoptosis in human HeLa cells incubated for 12 hrs by Annexin V-FITC/PI staining based flow cytometry (reference value: 3.37%); assay type: functional
# [17] = system: HeLa; assay: Induction of apoptosis in human HeLa cells incubated for 24 hrs by Annexin V-FITC/PI staining based flow cytometry (reference value: 3.37%); assay type: functional
# [18] = system: MCF7; assay: Induction of apoptosis in human MCF7 cells assessed as increase in PARP cleavage incubated for 24 hrs by Western blotting method; assay type: functional, cell-based
IC50 [9],IC50 [10],IC50 [11],IC50 [12],IC50 [13],IC50 [14],Structure (SMILES),growth inhibition (GI) [1],growth inhibition (GI) [2],growth inhibition (GI) [3],growth inhibition (GI) [4],growth inhibition (GI) [5],growth inhibition (GI) [6],growth inhibition (GI) [7],growth inhibition (GI) [8],Activity [15],Activity [16],Activity [17],Activity [18]
–,–,–,–,–,–,CN1C[C@@H](c2ccccc2)[C@@]2(N=C(c3ccccc3)OC2=O)[C@@]12C(=O)N(Cc1ccccc1)c1ccccc12,Active,Active,Active,Active,Active,Active,Active,Active,–,–,–,–
–,–,–,–,–,–,O=C1OC(c2ccccc2)=N[C@@]12[C@H](c1ccccc1)[C@H]1CSCN1[C@]21C(=O)Nc2ccccc21,Active,Active,Active,Active,Active,Active,Active,Active,–,–,–,–
–,–,–,–,–,–,O=C1OC(c2ccccc2)=N[C@@]12[C@H](c1ccccc1)[C@H]1CCCN1[C@]21C(=O)N(Cc2ccccc2)c2ccccc21,Active,Active,Active,Active,Active,Active,Active,Active,–,–,–,–
8.1 µM,4.2 µM,3.4 µM,8.7 µM,7.2 µM,7.9 µM,O=C1OC(c2ccccc2)=N[C@@]12[C@H](c1ccc(C(F)(F)F)cc1)[C@H]1CCCN1[C@]21C(=O)Nc2ccccc21,Active,Active,Active,Active,Active,Active,Active,Active,Active,16.17%,44.64%,Active
–,–,–,–,–,–,COc1cc([C@@H]2[C@H]3CCCN3[C@]3(C(=O)N(Cc4ccccc4)c4ccccc43)[C@]23N=C(c2ccccc2)OC3=O)cc(OC)c1OC,Active,Active,Active,Active,Active,Active,Active,Active,–,–,–,–
–,–,–,–,–,–,O=C1OC(c2ccccc2)=N[C@@]12[C@H](c1ccc(Cl)c(Cl)c1)[C@H]1CCCN1[C@]21C(=O)Nc2ccccc21,Active,Active,Active,Active,Active,Active,Active,Active,–,–,–,–
–,–,–,–,–,–,CN1C[C@@H](c2ccco2)[C@@]2(N=C(c3ccccc3)OC2=O)[C@@]12C(=O)N(Cc1ccccc1)c1ccccc12,Active,Active,Active,Active,Active,Active,Active,Active,–,–,–,–
–,–,–,–,–,–,O=C1OC(c2ccccc2)=N[C@@]12[C@H](c1ccccc1)CN[C@]21C(=O)Nc2ccccc21,Active,Active,Active,Active,Active,Active,Active,Active,–,–,–,–
–,–,–,–,–,–,O=C1OC(c2ccccc2)=N[C@@]12[C@H](c1cccc(Cl)c1)[C@H]1CCCN1[C@]21C(=O)Nc2ccc(Cl)cc21,Active,Active,Active,Active,Active,Active,Active,Active,–,–,–,–
–,–,–,–,–,–,O=C1OC(c2ccccc2)=N[C@@]12[C@H](c1cccc(Cl)c1)[C@H]1CCCN1[C@]21C(=O)Nc2ccccc21,Active,Active,Active,Active,Active,Active,Active,Active,–,–,–,–
–,–,–,–,–,–,O=C1OC(c2ccccc2)=N[C@@]12[C@H](c1ccccc1)[C@H]1CCCN1[C@]21C(=O)Nc2ccccc21,Active,Active,Active,Active,Active,Active,Active,Active,–,–,–,–
–,–,–,–,–,–,CN1C[C@@H](c2ccc(Cl)c(Cl)c2)[C@@]2(N=C(c3ccccc3)OC2=O)[C@@]12C(=O)N(Cc1ccccc1)c1ccccc12,Active,Active,Active,Active,Active,Active,Active,Active,–,–,–,–
–,–,–,–,–,–,CN1C[C@@H](c2ccccc2)[C@@]2(N=C(c3ccccc3)OC2=O)[C@@]12C(=O)Nc1ccccc12,Active,Active,Active,Active,Active,Active,Active,Active,–,–,–,–
–,–,–,–,–,–,O=C1OC(c2ccccc2)=N[C@@]12[C@H](c1ccc(Cl)c(Cl)c1)[C@H]1CCCN1[C@]21C(=O)N(Cc2ccccc2)c2ccccc21,Active,Active,Active,Active,Active,Active,Active,Active,–,–,–,–
–,–,–,–,–,–,CN1C(=O)[C@@]2(c3ccccc31)N(C)C[C@@H](c1cccc(Cl)c1)[C@@]21N=C(c2ccccc2)OC1=O,Active,Active,Active,Active,Active,Active,Active,Active,–,–,–,–
5.5 µM,5.1 µM,4.9 µM,6.7 µM,> 10 µM,7.1 µM,CNC(=O)c1cc(Oc2ccc(NC(=O)Nc3ccc(Cl)c(C(F)(F)F)c3)cc2)ccn1 [SORAFENIB],–,–,–,–,–,–,–,–,–,–,–,–
